Measurements published in PubChem BioAssay AID256 (DTP/NCI, 2004).
Where “and” joins values, the source holds several entries; their conditions need not be identical. Identical values can stand only once. Inconclusive results and toxic doses are left out. How the source made its calls: active means survival T/C of 150% or more; inactive means T/C below 125% in these data.

Tested on: CD2F1 mice, L1210 leukemia ip, survival T/C
Assay: NCI In Vivo Anticancer Drug Screen. Data for tumor model L1210 Leukemia (intraperitoneal) in CD2F1 (CDF1) mice
Details: endpoint: mean survival time, higher = longer survival
Procedure, shortened: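 Implant tumor; dose compound or vehicle; measure endpoint in both groups; report treated divided by control.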

[1] = dose: 100.0 mg/kg/injection, schedule: Q04DX003 (ip), vehicle: saline with Tween-80
[2] = dose: 200.0 mg/kg/injection, schedule: Q04DX003 (ip), vehicle: saline with Tween-80
[3] = dose: 400.0 mg/kg/injection, schedule: Q04DX003 (ip), vehicle: saline with Tween-80
[4] = dose: 100.0 mg/kg/injection, schedule: Q01DX001 (ip), vehicle: saline
[5] = dose: 200.0 mg/kg/injection, schedule: Q01DX001 (ip), vehicle: saline
[6] = dose: 400.0 mg/kg/injection, schedule: Q01DX001 (ip), vehicle: saline
[7] = dose: 100.0 mg/kg/injection, schedule: Q01DX009 (ip), vehicle: saline with Tween-80
[8] = dose: 25.0 mg/kg/injection, schedule: Q01DX009 (ip), vehicle: saline with Tween-80
[9] = dose: 50.0 mg/kg/injection, schedule: Q01DX009 (ip), vehicle: saline with Tween-80
[10] = dose: 50.0 mg/kg/injection, schedule: Q04DX003 (ip), vehicle: saline
[11] = dose: 200.0 mg/kg/injection, schedule: Q01DX009 (ip), vehicle: saline with Tween-80

Measured: T/C

CC(C)C(=O)Nc1cccc(OC(=O)NC(C)(C)C)c1
inactive: dose: 25.0 mg/kg/injection, schedule: Q01DX001 (ip), vehicle: saline with Tween-80 100 % of control | dose: 50.0 mg/kg/injection, schedule: Q01DX001 (ip), vehicle: saline with Tween-80 91 % of control | dose: 100.0 mg/kg/injection, schedule: Q01DX001 (ip), vehicle: saline with Tween-80 94 % of control

CN(C)c1ccc(C(O)c2ccc(N(C)C)cc2)cc1
inactive: [1] 90 % of control | [2] 91 % of control | [3] 94 % of control

C[P+](c1ccc(Cl)cc1)(c1ccc(Cl)cc1)c1ccc(Cl)cc1
inactive: dose: 6.25 mg/kg/injection, schedule: Q01DX009 (ip), vehicle: saline 119 % of control | dose: 12.5 mg/kg/injection, schedule: Q01DX009 (ip), vehicle: saline 107 % of control | dose: 25.0 mg/kg/injection, schedule: Q01DX009 (ip), vehicle: saline 109 % of control

CC1(C(=O)O)CC2CCC1CC2 (stereo not drawn)
inactive: dose: 50.0 mg/kg/injection, schedule: Q04DX002 (ip), vehicle: saline with Tween-80 96 % of control | dose: 100.0 mg/kg/injection, schedule: Q04DX002 (ip), vehicle: saline with Tween-80 107 % of control | dose: 200.0 mg/kg/injection, schedule: Q04DX002 (ip), vehicle: saline with Tween-80 100 % of control | dose: 400.0 mg/kg/injection, schedule: Q04DX002 (ip), vehicle: saline with Tween-80 96 % of control

O=c1c(-c2ccccc2)c1-c1ccccc1
inactive: [1] 93 % of control

CCOC(CCC#N)c1ccc(Cl)cc1 (stereo not drawn)
inactive: dose: 100.0 mg/kg/injection, schedule: Q01DX009 (ip), vehicle: saline 98 % of control | [1] 92 % of control | dose: 200.0 mg/kg/injection, schedule: Q01DX009 (ip), vehicle: saline 101 % of control | [2] 100 % of control | dose: 400.0 mg/kg/injection, schedule: Q01DX009 (ip), vehicle: saline 98 % of control | [3] 102 % of control

COC(=O)c1ccccc1NC1OC(CO)C(O)C1O (stereo not drawn)
inactive: [4] 101 % of control | [5] 92 % of control | [6] 91 % of control

Nc1nc(N)c(N)c(/C=C/c2ccccc2)n1
inactive: dose: 0.32 mg/kg/injection, schedule: Q01DX009 (ip), vehicle: other 101 % of control | dose: 0.63 mg/kg/injection, schedule: Q01DX009 (ip), vehicle: other 106 % of control | dose: 0.63 mg/kg/injection, schedule: Q01DX009 (ip), vehicle: water 97 % of control | dose: 1.25 mg/kg/injection, schedule: Q01DX009 (ip), vehicle: other 98 % of control | dose: 1.25 mg/kg/injection, schedule: Q01DX009 (ip), vehicle: water 103 % of control | dose: 2.5 mg/kg/injection, schedule: Q01DX009 (ip), vehicle: other 101 % of control | dose: 2.5 mg/kg/injection, schedule: Q01DX009 (ip), vehicle: water 97 % of control | dose: 5.0 mg/kg/injection, schedule: Q01DX009 (ip), vehicle: other 101 % of control | dose: 5.0 mg/kg/injection, schedule: Q01DX009 (ip), vehicle: water 97 % of control

C[S+](C)CC(C)(C)CI
inactive: dose: 25.0 mg/kg/injection, schedule: Q01DX001 (ip), vehicle: saline 100 % of control | dose: 50.0 mg/kg/injection, schedule: Q01DX001 (ip), vehicle: saline 110 % of control | [4] 100 % of control and 101 % of control

COc1ccc(NC(=S)NN)cc1
inactive: dose: 25.0 mg/kg/injection, schedule: Q04DX003 (ip), vehicle: saline with Tween-80 110 % of control | dose: 50.0 mg/kg/injection, schedule: Q04DX003 (ip), vehicle: saline with Tween-80 91 % of control | [1] 87 % of control and 96 % of control | [3] 107 % of control

COc1ccc(OC)c(NC(=O)NNC(=O)c2ccc(Cl)cc2)c1
inactive: [7] 90 % of control

CCN(CC)CCN1CC2CCCCC2C1 (stereo not drawn)
inactive: [8] 100 % of control | [9] 100 % of control | [7] 98 % of control and 102 % of control

Cc1ccc(S(=O)(=O)N=S2CCCC2)cc1
inactive: dose: 100.0 mg/kg/injection, schedule: Q04DX003 (ip), vehicle: other 102 % of control | dose: 200.0 mg/kg/injection, schedule: Q04DX003 (ip), vehicle: other 106 % of control | dose: 400.0 mg/kg/injection, schedule: Q04DX003 (ip), vehicle: other 104 % of control

O=C(O)C(Br)C(Br)c1ccccc1[N+](=O)[O-] (stereo not drawn)
inactive: dose: 12.5 mg/kg/injection, schedule: Q01DX009 (ip), vehicle: other 96 % of control | dose: 25.0 mg/kg/injection, schedule: Q01DX009 (ip), vehicle: other 103 % of control | dose: 50.0 mg/kg/injection, schedule: Q01DX009 (ip), vehicle: other 100 % of control | dose: 100.0 mg/kg/injection, schedule: Q01DX009 (ip), vehicle: other 102 % of control | dose: 200.0 mg/kg/injection, schedule: Q01DX009 (ip), vehicle: other 97 % of control

CCn1c(=O)c2[nH]c(Cl)nc2n(CC)c1=O
inactive: dose: 25.0 mg/kg/injection, schedule: Q04DX003 (ip), vehicle: Klucel (hydroxypropylcellulose) (HPC) 102 % of control | dose: 50.0 mg/kg/injection, schedule: Q04DX003 (ip), vehicle: Klucel (hydroxypropylcellulose) (HPC) 105 % of control | dose: 100.0 mg/kg/injection, schedule: Q04DX003 (ip), vehicle: Klucel (hydroxypropylcellulose) (HPC) 107 % of control

CC(=O)NC(C)NC(C)=O
inactive: [4] 103 % of control | [5] 103 % of control | [6] 103 % of control

c1cc(-n2nnc3cnccc32)ccn1
inactive: dose: 25.0 mg/kg/injection, schedule: Q04DX003 (ip), vehicle: saline 102 % of control | [10] 104 % of control

[NH-]C(CCC(N)=O)C(=O)O.[NH-]C(CCC(N)=O)C(=O)O.[Pt+2] (stereo not drawn)
inactive: dose: 3.13 mg/kg/injection, schedule: Q04DX003 (ip), vehicle: distilled water + Tween-80 103 % of control | dose: 6.25 mg/kg/injection, schedule: Q04DX003 (ip), vehicle: distilled water + Tween-80 104 % of control | dose: 12.5 mg/kg/injection, schedule: Q04DX003 (ip), vehicle: distilled water + Tween-80 110 % of control | dose: 25.0 mg/kg/injection, schedule: Q04DX003 (ip), vehicle: distilled water + Tween-80 110 % of control | dose: 50.0 mg/kg/injection, schedule: Q04DX003 (ip), vehicle: distilled water + Tween-80 95 % of control | dose: 100.0 mg/kg/injection, schedule: Q04DX003 (ip), vehicle: distilled water + Tween-80 104 % of control | dose: 200.0 mg/kg/injection, schedule: Q04DX003 (ip), vehicle: distilled water + Tween-80 98 % of control

O=C1NCCN1c1ncc([N+](=O)[O-])s1
inactive: [8] 101 % of control | [9] 97 % of control | [7] 97 % of control

CCOC(=O)c1cc2c(=O)cccnc2o1
inactive: dose: 75.0 mg/kg/injection, schedule: Q01DX001 (ip), vehicle: saline 93 % of control | dose: 150.0 mg/kg/injection, schedule: Q01DX001 (ip), vehicle: saline 96 % of control | dose: 300.0 mg/kg/injection, schedule: Q01DX001 (ip), vehicle: saline 96 % of control

CCCCOP(=O)(NCCOC)OCCCC
inactive: [1] 101 % of control | [2] 100 % of control | [3] 103 % of control

Cc1cc(O)c(C)c(C)c1Cl
inactive: [9] 102 % of control | [7] 104 % of control | [1] 94 % of control | [11] 91 % of control | [2] 98 % of control

COc1c(C)ccc2c1CCN1C3=C(CCC21)CC1(CC3)OCCO1 (stereo not drawn)
inactive: [7] 95 % of control | [1] 92 % of control | [11] 89 % of control | [2] 94 % of control | [3] 94 % of control

O=C(O)c1ccc([As](=O)(O)O)cc1[N+](=O)[O-]
inactive: [10] 105 % of control | dose: 100.0 mg/kg/injection, schedule: Q04DX003 (ip), vehicle: saline 97 % of control | dose: 200.0 mg/kg/injection, schedule: Q04DX003 (ip), vehicle: saline 95 % of control

CCOC(=O)c1ccc(OC(=O)Nc2ccc(Cl)cc2)cc1
inactive: [7] 96 % of control | [1] 94 % of control | [11] 102 % of control | [2] 94 % of control | dose: 400.0 mg/kg/injection, schedule: Q01DX009 (ip), vehicle: saline with Tween-80 100 % of control

Cc1cccc(NC(=O)/C=C/C(=O)O)c1
inactive: [7] 94 % of control | [11] 100 % of control

O=C(O)C1C2c3cccc4cccc(c34)C12 (stereo not drawn)
inactive: [9] 101 % of control | [7] 97 % of control | [1] 101 % of control | [11] 109 % of control | [2] 101 % of control

O.O=[Se](=O)(O)O.[NH-]C1CCCCC1[NH-].[Pt+2] (stereo not drawn)
inactive: dose: 2.0 mg/kg/injection, schedule: Q01DX009 (ip), vehicle: dextrose 88 % of control | dose: 3.0 mg/kg/injection, schedule: Q01DX009 (ip), vehicle: dextrose 109 % of control | dose: 8.0 mg/kg/injection, schedule: Q04DX003 (ip), vehicle: dextrose 87 % of control
